Experimental data from PMC4879640 (Frontiers in Microbiology, 2016).

Test system: T1, H6-PnpA (PNP 4-monooxygenase)
T1 construct: N-terminal His6 tag, pET-28a (NdeI-XhoI), E. coli Rosetta(DE3)pLysS; gene pnpA of the pnpABA1CDEF cluster (not pnpA1)
Format: biochemical, Burkholderia sp. SJ98
Conditions: read-out: apparent Km

Compound: Cc1cc(O)ccc1[N+](=O)[O-] [3-methyl-4-nitrophenol]
- Km: 20.3 ± 2.54 µM
